According to patent US20120088753A1, “PYRROLOPYRIMIDINES AND USED AS KINASE INHIBITORS” (MEDICAL RESEARCH COUNCIL TECHNOLOGY, priority 2009, published 2012):

target: T1, TBK1 (Homo sapiens, UniProt Q9UHD2); experiment: TBK1 protein kinase assay ([γ-33P]ATP filter-plate, IC50 from 10 concentrations); type: biochemical; conditions: 50 μM ATP, peptide substrate 300 μM, 30 min, 21° C.; read-out: Potency score (TBK1 IC50)
T1 construct: All protein kinases were of human origin and encoded full length proteins, unless indicated otherwise; His6; made in house; host or cells: insect Sf21 cells
T1 sequence (Q9UHD2 1-729): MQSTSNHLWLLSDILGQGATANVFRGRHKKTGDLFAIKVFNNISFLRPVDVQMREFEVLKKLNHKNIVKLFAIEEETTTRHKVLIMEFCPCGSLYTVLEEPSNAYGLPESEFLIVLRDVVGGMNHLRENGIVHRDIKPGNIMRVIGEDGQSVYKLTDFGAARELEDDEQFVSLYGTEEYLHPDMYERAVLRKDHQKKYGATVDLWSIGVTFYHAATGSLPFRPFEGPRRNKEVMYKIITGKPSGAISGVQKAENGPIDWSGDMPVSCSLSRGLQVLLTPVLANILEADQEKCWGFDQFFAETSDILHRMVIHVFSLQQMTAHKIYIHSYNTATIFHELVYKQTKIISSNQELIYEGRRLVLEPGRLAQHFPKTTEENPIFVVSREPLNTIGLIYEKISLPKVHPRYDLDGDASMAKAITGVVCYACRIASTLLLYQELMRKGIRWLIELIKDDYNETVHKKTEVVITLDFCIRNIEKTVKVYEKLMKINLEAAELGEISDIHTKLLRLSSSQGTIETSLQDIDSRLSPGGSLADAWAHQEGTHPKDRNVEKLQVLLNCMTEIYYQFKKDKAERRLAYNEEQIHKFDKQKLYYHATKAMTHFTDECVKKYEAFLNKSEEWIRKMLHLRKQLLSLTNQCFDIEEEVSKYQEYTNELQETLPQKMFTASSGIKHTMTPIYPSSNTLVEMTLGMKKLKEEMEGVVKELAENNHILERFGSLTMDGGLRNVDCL
Excerpt: All protein kinases were of human origin and encoded full length proteins, unless indicated otherwise. They were either expressed as glutathione S-transferase (GST) fusion proteins in Escherichia Coli or as hexahistidine (His6)-tagged proteins in insect Sf21 cells. GST fusion proteins were purified by affinity chromatography on glutathione-Sepharose, and His6-tagged proteins on nickel/nitriloacetate-agarose. The procedures for expressing some of the protein kinases used herein have been detailed previously.^8,9 The following sections outline the DNA vectors synthesised and the procedures used to express and purifying protein kinases that have not been reported previously.
The following kinases were expressed in Sf21 cells: Aurora B and Aurora C, extra-cellular signal-regulated kinase 8 (ERK8), microtubule affinity regulating kinase 3 (MARK3), protein kinase Bα[118-480][S473D], protein kinase Bβ (PKBβ[120-481][S474D], 3-phosphoinositide-dependent protein kinase-1 [52-556] (PDK1[52-556], IKKε, TBK1,
All assays (25.5 μl) were carried out at room temperature (21° C.) and were linear with respect to time and enzyme concentration under the conditions used. Assays were performed for 30 min using Multidrop Micro reagent dispensers (Thermo Electron Corporation, Waltham, Mass. 02454, USA) in a 96-well format. The concentration of magnesium acetate in the assays was 10 mM and the [γ-33P] ATP (800 cpm/pmol) was used at 5, 20 or 50 μM as indicated, in order to be at or below the Km for ATP for each enzyme. Protein kinases assayed at 5 μM ATP were: ERK1, ERK8, PKBα, MARK3, Aurora C. Protein kinases assayed at 20 μM ATP were: JNK1, PDK1, CHK1, CHK2, CDK2 and Aurora B. Protein kinases assayed at 50 μM ATP were: MNK2, IKKepsilon and TBK1.
The assays were initiated with MgATP, stopped by addition of 5 μl of 0.5 M orthophosphoric acid and spotted on to P81 filterplates using a unifilter harvester (PerkinElmer, Boston, Mass. 02118, USA). The IC50 values of inhibitors were determined after carrying out assays at 10 different concentrations of each compound.
ERK1 and ERK8 were both assayed against myelin basic protein (MBP, 0.33 mg/ml). MARK3 was assayed against the peptide […] (300 μM), MNK2 against the eIF4E protein (0.5 mg/ml). PKBβ was assayed against the peptide GRPRTSSFAEGKK (30 μM). TBK1 were assayed against ([…]) (300 μM). The substrates used for other protein kinases were described previously.^8,9
Unless stated otherwise, enzymes were diluted in 50 mM Tris/HCl pH 7.5, 0.1 mM EGTA, 1 mg/ml BSA, 0.1% (v/v) 2-mercaptoethanol and assayed in 50 mM Tris/HCl pH 7.5, 0.1 mM EGTA, 0.1% (v/v) 2-mercaptoethanol.

Row | SMILES | IC50 [nM]
1 | O=C(NCCCn1ccc2cnc(Nc3cnn(CCN4CCOCC4)c3)nc21)C1CCC1 [Example 9, Cyclobutanecarboxylic acid (3-{2-[1-(2-morpholin-4-yl-ethyl)-1H-pyrazol-4-ylamino]-pyrrolo[2,3-d]pyrimidin-7-yl}-propyl)-amide] | 100 to 1000
2 | O=C(NCCCn1ccc2cnc(Nc3cccc(F)c3)nc21)c1cccs1 [Example 10, Thiophene-2-carboxylic acid {3-[2-(3-fluoro-phenylamino)-pyrrolo[2,3-d]pyrimidin-7-yl]-propyl}-amide] | < 100
3 | N#Cc1cccc(Nc2ncc3ccn(CCCNC(=O)c4cccs4)c3n2)c1 [Example 11, Thiophene-2-carboxylic acid {3-[2-(3-cyano-phenylamino)-pyrrolo[2,3-d]pyrimidin-7-yl]-propyl}-amide] | 100 to 1000
4 | O=C(NCCCn1ccc2cnc(Nc3cccnc3)nc21)c1cccs1 [Example 12, Thiophene-2-carboxylic acid {3-[2-(pyridin-3-ylamino)-pyrrolo[2,3-d]pyrimidin-7-yl]-propyl}-amide] | 100 to 1000
5 | O=C(NCCCn1ccc2cnc(Nc3cccc(C(F)(F)F)c3)nc21)c1cccs1 [Example 13, Thiophene-2-carboxylic acid {3-[2-(3-trifluoromethyl-phenylamino)-pyrrolo[2,3-d]pyrimidin-7-yl]-propyl}-amide] | 1000 to 10000
6 | O=C(NCCCn1ccc2cnc(Nc3cccc(NC(=O)N4CCCC4)c3)nc21)c1cccs1 [Example 14, Pyrrolidine-1-carboxylic acid [3-(7-{3-[(thiophene-2-carbonyl)-amino]-propyl}-7H-pyrrolo[2,3-d]pyrimidin-2-ylamino)-phenyl]-amide] | 100 to 1000
7 | O=C(NCCCn1ccc2cnc(Nc3ccc(N4CCOCC4)nc3)nc21)c1cnccn1 [Example 17, Pyrazine-2-carboxylic acid {3-[2-(6-morpholin-4-yl-pyridin-3-ylamino)-pyrrolo[2,3-d]pyrimidin-7-yl]-propyl}-amide] | 100 to 1000
8 | O=C(CC1CC1)NCCCn1ccc2cnc(Nc3ccc(N4CCOCC4)nc3)nc21 [Example 18, 2-Cyclopropyl-N-{3-[2-(6-morpholin-4-yl-pyridin-3-ylamino)-pyrrolo[2,3-d]pyrimidin-7-yl]-propyl}-acetamide] | 100 to 1000
9 | CC(C)CC(=O)NCCCn1ccc2cnc(Nc3ccc(N4CCOCC4)nc3)nc21 [Example 19, 3-Methyl-N-{3-[2-(6-morpholin-4-yl-pyridin-3-ylamino)-pyrrolo[2,3-d]pyrimidin-7-yl]-propyl}-butyramide] | 100 to 1000
10 | O=C(NCCCn1ccc2cnc(Nc3ccc(N4CCOCC4)nc3)nc21)C1CCOC1 (stereo not shown) [Example 20, Tetrahydro-furan-3-carboxylic acid {3-[2-(6-morpholin-4-yl-pyridin-3-ylamino)-pyrrolo[2,3-d]pyrimidin-7-yl]-propyl}-amide] | < 100
11 | O=C(NCCCn1ccc2cnc(Nc3ccc(N4CCOCC4)nc3)nc21)c1cncs1 [Example 21, Thiazole-5-carboxylic acid {3-[2-(6-morpholin-4-yl-pyridin-3-ylamino)-pyrrolo[2,3-d]pyrimidin-7-yl]-propyl}-amide] | 100 to 1000
12 | O=C(NCCCn1ccc2cnc(Nc3ccc(N4CCOCC4)nc3)nc21)C1CC1 [Example 22, Cyclopropanecarboxylic acid {3-[2-(6-morpholin-4-yl-pyridin-3-ylamino)-pyrrolo[2,3-d]pyrimidin-7-yl]-propyl}-amide] | 100 to 1000
13 | CC(C)C(=O)NCCCn1ccc2cnc(Nc3ccc(N4CCOCC4)nc3)nc21 [Example 23, N-{3-[2-(6-Morpholin-4-yl-pyridin-3-ylamino)-pyrrolo[2,3-d]pyrimidin-7-yl]-propyl}-isobutyramide] | 1000 to 10000
14 | O=C(CC1CCCC1)NCCCn1ccc2cnc(Nc3ccc(N4CCOCC4)nc3)nc21 [Example 25, 2-Cyclopentyl-N-{3-[2-(6-morpholin-4-yl-pyridin-3-ylamino)-pyrrolo[2,3-d]pyrimidin-7-yl]-propyl}-acetamide] | 100 to 1000

Results, then the molecule that gave them:

Row | IC50 [nM] | SMILES
15 | < 100 | Cn1ncc2cc(Nc3ncc4ccn(CCCNC(=O)C5CCC5)c4n3)ccc21 [Example 1, Cyclobutanecarboxylic acid {3-[2-(1-methyl-1H-indazol-5-ylamino)-pyrrolo[2,3-d]pyrimidin-7-yl]propyl}-amide]
16 | < 100 | Cn1ncc2ccc(Nc3ncc4ccn(CCCNC(=O)C5CCC5)c4n3)cc21 [Example 2, Cyclobutanecarboxylic acid {3-[2-(1-methyl-1H-indazol-6-ylamino)-pyrrolo[2,3-d]pyrimidin-7-yl]-propyl}-amide]
17 | < 100 | O=C(NCCCn1ccc2cnc(Nc3ccc(N4CCOCC4)cc3)nc21)C1CCC1 [Example 3, Cyclobutanecarboxylic acid {3-[2-(4-morpholin-4-yl-phenylamino)-pyrrolo[2,3-d]pyrimidin-7-yl]-propyl}-amide]
18 | < 100 | CN1CCN(c2ccc(Nc3ncc4ccn(CCCNC(=O)C5CCC5)c4n3)cc2)CC1 [Example 4, Cyclobutanecarboxylic acid (3-{2-[4-(4-methyl-piperazin-1-yl)-phenylamino]-pyrrolo[2,3-d]pyrimidin-7-yl}-propyl)-amide]
19 | < 100 | CN(C)Cc1ccc(Nc2ncc3ccn(CCCNC(=O)C4CCC4)c3n2)cc1 [Example 5, Cyclobutanecarboxylic acid {3-[2-(4-dimethylaminomethyl-phenylamino)-pyrrolo[2,3-d]pyrimidin-7-yl]-propyl}-amide]
20 | < 100 | O=C(NCCCn1ccc2cnc(Nc3cccc(CN4CCCC4)c3)nc21)C1CCC1 [Example 6, Cyclobutanecarboxylic acid {3-[2-(3-pyrrolidin-1-ylmethyl-phenylamino)-pyrrolo[2,3-d]pyrimidin-7-yl]-propyl}-amide]
21 | < 100 | O=C(NCCCn1ccc2cnc(Nc3cccc(-c4cnco4)c3)nc21)C1CCC1 [Example 7, Cyclobutanecarboxylic acid {3-[2-(3-oxazol-5-yl-phenylamino)-pyrrolo[2,3-d]pyrimidin-7-yl]-propyl}-amide]
22 | < 100 | Cn1cc(Nc2ncc3ccn(CCCNC(=O)C4CCC4)c3n2)cn1 [Example 8, Cyclobutanecarboxylic acid {3-[2-(1-methyl-1H-pyrazol-4-ylamino)-pyrrolo[2,3-d]pyrimidin-7-yl]-propyl}-amide]
23 | < 100 | O=C(NCCCn1ccc2cnc(Nc3ccc(C(=O)N4CCOCC4)cc3)nc21)C1CCC1 [Example 15, Cyclobutanecarboxylic acid (3-{2-[4-(morpholine-4-carbonyl)-phenylamino]-pyrrolo[2,3-d]pyrimidin-7-yl}-propyl)-amide]
24 | < 100 | O=C(NCCCn1ccc2cnc(Nc3ccc(N4CCOCC4)nc3)nc21)C1CCCC1 [Example 16, Cyclopentanecarboxylic acid {3-[2-(6-morpholin-4-yl-pyridin-3-ylamino)-pyrrolo[2,3-d]pyrimidin-7-yl]-propyl}-amide]
25 | 100 to 1000 | O=C(NCCCn1ccc2cnc(Nc3ccc(N4CCOCC4)nc3)nc21)C1CCCCC1 [Example 24, Cyclohexanecarboxylic acid {3-[2-(6-morpholin-4-yl-pyridin-3-ylamino)-pyrrolo[2,3-d]pyrimidin-7-yl]-propyl}-amide]
